Source: patent US11484525B2 (priority 2015, dated 2022)
Entries after “also recorded” stand apart in the source; their conditions may differ.

Legend:
κOR [1] = target: T1, κOR (Homo sapiens (Human), UniProt P41145); experiment: Radioligand binding at κOR (PDSP); details: Table 2; no Ki, below 50%
μOR [2] = target: T2, μOR (Homo sapiens (Human), UniProt P35372); experiment: Radioligand competition binding vs 3H-diprenorphine at μOR
μOR [3] = target: T2, μOR; format: cell-based
μOR [4] = target: T2, μOR; experiment: BRET-based cAMP accumulation assay (CAMYEL) for SAR of PZM21-29; format: cell-based; details: Gi/o signaling, FIG. 4 analogs
hMOR + Gqi5 = hMOR + Gqi5 (Homo sapiens (Human), UniProt P35372); experiment: IP accumulation assay hMOR + Gqi5; format: cell-based; details: % morphine, at 10 μM
μOR [5] = target: T2, μOR; experiment: Radioligand depletion assay for irreversible binding, wild-type μOR
μOR [6] = target: T2, μOR; experiment: β-arrestin2 recruitment by BRET without GRK2; format: cell-based; details: no GRK2
μOR [7] = target: T2, μOR; experiment: β-arrestin2 recruitment by BRET with GRK2 co-expression; format: cell-based
mice [8] = experiment: Whole body plethysmography (respiration); details: equianalgesic doses: PZM21 40 mg/kg, TRV130 […], morphine 10 mg/kg
MOR = MOR (Homo sapiens (Human), UniProt P35372); experiment: MOR functional annotations (method not given); details: for functional classification given with the label: binding table, compound cell; for MOR agonist (potency annotation under structure): Table 4 caption line
μOR [9] = target: T2, μOR; experiment: β-arrestin recruitment, PathHunter enzyme complementation (OPRM1 CHO-K1); format: cell-based
mice [10] = experiment: Formalin injection assay; details: mouse, in vivo
[11] = system: Oprm1−/− and wild-type C57Bl/6J mice; experiment: Hot plate: affective/reflexive subcategorization and μOR knockout mice; format: in vivo, mouse
C57BL/6J mice [12] = experiment: Tail-flick analgesia; details: mouse, in vivo
[13] = Pharmacokinetics, serum and brain levels; details: mouse, in vivo
Experimental: Studies were performed by the Preclinical Therapeutics Core and the Drug Studies Unit at the University of California San Francisco. […] All studies were performed with approved mouse protocols from the institutional animal care and use committees.

C57BL/6J mice [14] = experiment: Hot-plate analgesia; format: in vivo, mouse
[15] = Metabolism by mouse liver microsomes; format: in vitro ADME; details: signaling experiments with resulting metabolite pool
μOR [16] = target: T2, μOR; experiment: Receptor internalization (PathHunter, U2OS); format: cell-based; details: compared to DAMGO and morphine
nociceptin receptor = nociceptin receptor (Homo sapiens (Human), UniProt P41146); experiment: Gi/o Glosensor assay at nociceptin receptor; format: cell-based
κOR [17] = target: T1, κOR; experiment: Gi/o Glosensor assay at κOR; format: cell-based
μOR [18] = target: T2, μOR; experiment: Calcium release (FLIPR); format: cell-based
Experimental: Calcium release was measured using a FLIPR^TETRA fluorescence imaging plate reader (Molecular Devices). Calcium release experiments were run in parallel to Gi/o Glosensor experiments with the same HEKT cells transfected with μOR, except cells for FLIPR were plated in poly-lysine coated 384-well black clear bottom cell culture plates. […] Dye was incubated for 1 hour at 37° C. Afterwards, cells were equilibrated to room temperature, and fluorescence in each well was read for the initial 10 seconds to establish a baseline. Afterwards, 10 μL of drug (3×) was added per well and the maximum-fold increase in fluorescence was determined as fold-over-baseline. Drug solutions used for the FLIPR assay were exactly the same as used for Gi/o Glosensor experiments. To activate endogenous Gq-coupled receptors as a positive control for calcium release, TFLLR-NH2 (10 μM, PAR-1 selective agonist) was used.

Cc1nc(CNC(=O)NC[C@@H](Cc2ccccc2)N(C)C)sc1C [Compound 15]
κOR Ki, given as <50% (κOR [1]): <50%

O=C(Cc1cn2ccccc2n1)NCC1(c2ccccc2)CCC1 [Compound 9]
μOR Ki column, given as <50% (μOR [2]): <50%

C[C@H](Cc1ccsc1)NC(=O)NC[C@H](Cc1ccc(O)cc1)N(C)C [(S,R)-21, 1-[(S)-2-(Dimethylamino)-3-(4-hydroxyphenyl)propyl]-3-((R)-1-(thiophen-3-yl)propan-2-yl)urea]
Gi/o activation / μOR agonist activity (μOR [3]): more potent partial agonist of the μOR

CN(C=O)[C@H](CNC(=O)NCCc1ccccc1)Cc1ccc(O)cc1 [PZM28, (S)—N-(1-(4-Hydroxyphenyl)-3-(3-phenethylureido)propan-2-yl)-N-methylformamide]
loss of potency relative to parent (μOR [4]): 1000 fold

Cc1cc(O)cc(C)c1C[C@@H](CNC(=O)N[C@H](C)Cc1ccsc1)N(C)C [BD 131LR, 1-((S)-2-(dimethylamino)-3-(4-hydroxy-2,6-dimethylphenyl)propyl)-3-((R)-1-(thiophen-3-yl)propan-2-yl)urea]
hMOR + Gqi5 IP accumulation assay efficacy a @ 10 μM (hMOR + Gqi5): @ 10 μMa: 10%

CN(C)[C@H](CNC(=O)NCCc1cn(CCSSCCN=[N+]=[N-])nn1)Cc1ccc(O)cc1 [PZM29, (S)-1-(2-(1-(2-((2-Azidoethyl)disulfanyl)ethyl)-1H-1,2,3-triazol-4-yl)ethyl)-3-(2-(dimethylamino)-3-(4-hydroxyphenyl)propyl)urea×CF3COOH]
efficacy and potency as agonist (μOR [4]): retains its efficacy as an agonist
irreversible binding to wild-type μOR (μOR [5]): not the wild-type receptor

COc1ccsc1CNCC[C@@]1(c2ccccn2)CCOC2(CCCC2)C1 [TRV130, reference compound]
β-arrestin2 recruitment in the absence of GRK2 (μOR [6]): no β-arrestin2 recruitment
arrestin recruitment with over-expressed GRK2 (μOR [7]): we observe arrestin recruitment
respiration frequency / respiratory depression (mice [8]): significantly depresses respiration at 15 minutes

CC(C)[C@H](CNC(=O)c1ccc([N+](=O)[O-])s1)N1CCc2ccccc2C1 [Compound 8]
Gi/o activation / μOR agonist activity (μOR [3]): activated Gi/o

Cc1cc(O)cc(C)c1C[C@@H](CNC(=O)NCCc1ccsc1)N(C)C [DD 34L, (S)-1-(2-(dimethylamino)-3-(4-hydroxy-2,6-dimethylphenyl)propyl)-3-(2-(thiophen-3-yl)ethyl)urea]
functional classification given with the label (MOR): DD 34L (ANTAGONIST) [drawing 449]

C[C@@H](Cc1ccsc1)NC(=O)NC[C@H](Cc1ccccc1)N(C)C [(S,S)-12, 1-[(S)-2-(Dimethylamino)-3-phenylpropyl]-3-[(S)-1-(thiophen-3-yl)propan-2-yl]urea]
MOR agonist (potency annotation under structure) (MOR): (S,S)-12 12 nM MOR agonist

C[C@@H](Cc1ccsc1)NC(=O)NC[C@H](Cc1ccc(O)cc1)N(C)C [PZM21, 1-[(S)-2-(Dimethylamino)-3-(4-hydroxyphenyl)propyl]-3-((S)-1-(thiophen-3-yl)propan-2-yl)urea]
β-arrestin2 recruitment in the absence of GRK2 (μOR [6]): no β-arrestin2 recruitment
β-arrestin2 recruitment in PathHunter assay (μOR [9]): undetectable; also recorded: minimal recruitment; also recorded: no detectable
formalin injection nociception (mice [10]): active
analgesic response in μOR knockout mice ([11]; Oprm1−/− mice, hot plate): completely ablates
affective vs reflexive component of pain ([11]; hot plate 52.5° C.): only modulates the affective component of pain; also recorded: solely confers analgesia to the affective component of pain
tail-flick analgesia (C57BL/6J mice [12]): no activity; also recorded: no analgesic effect
blood brain barrier penetration [13]: substantial fraction
arrestin recruitment with over-expressed GRK2 (μOR [7]): weak arrestin recruitment efficacy; also recorded: we observe arrestin recruitment
hot-plate % MPE (C57BL/6J mice [14]; 15 minutes after highest dose tested, s.c.): 87%
hot-plate analgesia (C57BL/6J mice [14]; mouse, in vivo): dose-dependent analgesia
μOR activation by metabolite pool [15]: no evidence of a metabolite with more potent activation of the μOR
μOR internalization (μOR [16]): minimal level
nociceptin receptor agonist activity (nociceptin receptor): no detectable
κOR agonist activity (κOR [17]): no detectable
mode of action at κOR (κOR [17]; antagonist mode): antagonist
calcium release (μOR [18]): no activity

CN(C)[C@H](CNC(=O)NCCc1ccsc1)Cc1ccc(O)cc1 [DD 16, (S)-1-(2-(dimethylamino)-3-(4-hydroxyphenyl)propyl)-3-(2-(thiophen-3-yl)ethyl)urea]
MOR agonist (potency annotation under structure) (MOR): (23) 58 nM MOR agonist

Cc1cc(O)cc(C)c1C[C@@H](CNC(=O)NCCN1C(=O)C=CC1=O)N(C)C [DD 144, (S)-1-(2-(dimethylamino)-3-(4-hydroxy-2,6-dimethylphenyl)propyl)-3-(2-(2,5-dioxo-2,5-dihydro-1H-pyrrol-1-yl)ethyl)urea]
functional classification given with the label (MOR): DD 144 (ANTAGONIST, Covalent) [drawing 455]

CN(C)[C@@H](CNC(=O)NC[C@@H](O)c1cnn(C)c1)Cc1ccccc1 [Compound 11]
κOR Ki, given as <50% (κOR [1]): <50%

CN(Cc1nnc(C2CC2)n1C)C(=O)NC[C@@H](Cc1ccccc1)N(C)C [Compound 10]
κOR Ki, given as <50% (κOR [1]): <50%

CN(CC1CC1)[C@H](CNC(=O)NCCc1ccccc1)Cc1ccc(O)cc1 [PZM27, (S)-1-(2-((Cyclopropylmethyl)(methyl)amino)-3-(4-hydroxyphenyl)propyl)-3-phenethylurea×CF3COOH]
efficacy and potency as agonist (μOR [4]): decreased efficacy
loss of potency relative to parent (μOR [4]): 30 fold
